In a melting point compilation (Tetko et al.; mined from patent text by program, amines drawn as free bases though some values may be those of a salt) one finds melting point data, which are given here for 87 molecules.

As a reminder, the melting point is the temperature of the solid-liquid transition. `COc1nc(-c2ccccc2)c(-c2ccc(=O)n(C(C)C)n2)nc1C#N`: the melting point lay in the range of 170 to 172 °C.

Regarding `COC(=O)c1cc(=O)c2cc3[nH]c(=O)oc3cc2[nH]1`, the melting point amounted to 297 °C.

Molecule `COc1ccc(C(=O)N2c3ccccc3C(N3CCCCc4ccccc43)=CC2C)cc1OC` (configuration not stated) returned a melting point of 151 to 152 °C.

Molecule `Cc1nccn1Cc1nc2ccccc2n1-c1ccccc1` came in with a melting point of 124 to 126 °C.

As for `CCN1NN(N)N=C1C`, the melting point was 45 to 50 °C.

As to `O=C(NCc1ccccn1)Nc1cc(N2CC(Cc3ccccc3)CC2=O)ccn1` (configuration not stated), the melting point was in the range of 215 to 220 °C.

Molecule `COc1ccc(-n2nc(Sc3cccc4ccccc34)c(C)c(C#N)c2=O)cc1` returned a melting point of 181 to 183 °C.

`Cc1cccc(N2CCN(CCCOc3ccc4ccc(=O)oc4c3)CC2)c1C` yielded a melting point of 89 °C.

As for `C=CCc1c(OCCCOc2ccc3c(c2)OC(C(=O)O)CC3)ccc(C(C)=O)c1OC` (configuration not stated), the melting point was found to be 85.5 °C.

For the molecule `CCn1c(=O)n(CCCCC(C)(O)CC)c(=O)c2c1ncn2Cc1ccccc1` (configuration not stated), the melting point fell in the range of 93 to 94 °C.

In turn, `NS(=O)(=O)c1ccc(-n2nc(CCCNC(=O)Nc3ccc(OC(F)(F)F)cc3)cc2-c2ccccc2)cc1` displayed a melting point of 206 to 207 °C.

As for `O=C(O)Cc1cc(Br)cc(Br)c1OCCc1ccccc1`, the melting point was in the range of 81 to 84 °C.

`Nc1ccsc1C(=O)NC/C=C\COc1cc(CN2CCCCC2)ccn1`: the melting point is 138 to 140 °C.

`CC(C)(C)c1nc2cc3c(cc2[nH]1)NC(=O)C3(C)C` displayed a melting point above 300 °C.

Molecule `CSC(=NC#N)N(C)N=Cc1ccccc1` returned a melting point of 132 to 133 °C.

Take `CCOC(=O)CCCn1cc(C(=O)O)c2nc3c(C)cccc3cc2c1=O`: the melting point lay within 186 to 188 °C.

Regarding `Cc1ccc(NC(=S)NC(=O)c2ccccc2)c(Cl)c1`, the melting point was 143 °C.

In turn, `COC(=O)CC/C(C)=C/Cc1c(OC)c(C)c2c(c1OS(=O)(=O)C(F)(F)F)C(=O)OC2` gave a melting point of 53 to 55 °C.

The molecule `CNc1cnc2ccc(Cl)cc2c1-c1ccccc1` showed a melting point of 139 to 140 °C.

For `COc1cc2c(cc1OC)CCNCC2`, the melting point was in the range of 86 to 89 °C.

On to `CN(CCO)c1nc(-c2ccc(Cl)c(C(=O)NCC34CC5CC(CC(C5)C3)C4)c2)ccc1C(=O)O`, for which the melting point was 121 to 124 °C.

As to `CC(C)(C)N1CC2(CCN(Cc3ccccc3)CC2)OC1=O`, the melting point fell in the range of 110 to 112 °C.

With `Cn1ncc(C(=O)N2CC(F)C2)c1C(=O)Nc1ccn2nc(N3CCOCC3)nc2c1`, the melting point lay in the range of 247 to 250 °C.

With `Cc1ccc2c(CCN)c[nH]c2c1C`, the melting point lay in the range of 171 to 173 °C.

As for `CCOC(=O)C1=C(N)NC(N)=C(C(=O)OCC)C1c1ccnc2ccccc12`, the melting point is 145 °C.

As to `CC(=O)n1cc(-c2cccc(Cl)c2Cl)c(C(F)(F)F)c1`, the melting point was 65 to 66 °C.

As for `COc1ccc(C2(Oc3c(F)c(F)c(F)c(F)c3F)CCN(C)CC2)cc1`, the melting point was 70 to 80 °C.

`COc1ccc(C(=O)Nc2cccc(O)c2NC(=O)c2ccc(OC)cc2)cc1` had a melting point of 208 to 209 °C.

Take `O=C(O)c1cn(-c2cc([N+](=O)[O-])c(F)c(F)c2F)c2nc(Cl)c(F)cc2c1=O`: the melting point was 216 to 221 °C.

`CC1(C)CCC(C)(C)c2cc3cc(-c4c[nH]c(C(=O)O)c4)ccc3cc21` showed a melting point of 234 to 238 °C.

Consider `O=[N+]([O-])c1cc(CBr)cc([N+](=O)[O-])c1`, for which the melting point lay in the range of 93 to 94 °C.

Molecule `CC(=O)NCC1CN(c2ccc(N3CCS(=O)CC3)c(F)c2)C(=O)O1` (configuration not stated) had a melting point of 159 to 161 °C.

Take `CC(n1ncnn1)C(O)(c1ccc(OC(F)(F)F)cc1)c1ccc(OC(F)(F)F)cc1` (configuration not stated): the melting point fell in the range of 55 to 58 °C.

With `CN(C)C(=O)Oc1ccc(C[C@H](NC(=O)Nc2ccccc2S(=O)(=O)c2ccccc2)C(=O)O)cc1`, the melting point was determined as 115 °C.

In the case of `CCC(=O)C1=C(O)CC(c2c(C)c([N+](=O)[O-])c(C)c([N+](=O)[O-])c2C)CC1=O` (configuration not stated), the melting point was 249 °C.

`NN1CN=Cc2c(NC3OC(CO)C(O)C3O)ncnc21` (configuration not stated) registered a melting point of 209 to 214 °C.

`CC(=O)Nc1cc(Oc2ccc3c(C(=O)Nc4ccc(CN5CCNCC5)c(C(F)(F)F)c4)cccc3c2)ncn1` came in with a melting point of 194 to 197 °C.

`CN1CC2(c3cccc(O)c3)CCCC1C2` (configuration not stated) showed a melting point of 144 to 146 °C.

Molecule `Cc1cccc2c1NCC(=O)N2` gave a melting point of 168 to 171 °C.

In turn, `C[C@H]1CN(c2nc(-c3ccccc3)nc3ccccc23)[C@@H](C)CN1c1ccccn1` (relative stereo) gave a melting point of 68 to 70 °C.

In turn, `CS(=O)(=O)N1CCC(Nc2nc(Nc3ccc(F)c(CN4CCOCC4)c3)nc(OCC(F)(F)F)n2)CC1` gave a melting point of 96 to 98 °C.

For the molecule `Cc1cc(O)c(S(=O)Cc2ccccc2)c(=O)o1` (configuration not stated), the melting point lay in the range of 150 to 153 °C.

As to `CCCC(CCC)n1nnc2c(Nc3c(C)cc(C)cc3Br)nc(C)nc21`, the melting point was 141 to 142 °C.

Take `COc1ccc2[nH]cc(C3=CCN(C[C@H](O)COc4cccc5[nH]ccc45)CC3)c2c1`: the melting point was in the range of 105 to 110 °C.

Molecule `Cn1cncc1-c1nc(-c2cccc(Cl)c2)c2cc(C(O)(c3ccc(Cl)cc3)c3cncn3C)ccc2n1` (configuration not stated) had a melting point of 160 °C.

Molecule `CC(C)CC(S)C(=O)NC1(C(=O)NC(CC2(c3cccc4ccccc34)C=CC(c3ccccc3)=CC2)C(=O)O)CCCC1` (configuration not stated) displayed a melting point of 187 to 189 °C.

Consider `CCCC1=C(C(=O)OCC)C(c2cc(Cl)ccc2Cl)c2c[nH]nc2N1` (configuration not stated), for which the melting point came out at 162 °C.

`COc1cc(OCc2ccccn2)ccc1/C=C/C(=O)CC(=O)/C=C/c1ccc2cc[nH]c2c1`: the melting point was 165 to 168 °C.

`COc1cc2c(cc1OC)C1=NNC(c3ccc(Cl)cc3)C1CCC2` (configuration not stated) gave a melting point of 160 to 163 °C.

Take `CCOP(=O)(Cc1ccc(Oc2sc(C(N)=O)c3c2-c2c(cnn2CC)CC3)cc1)OCC`: the melting point lay in the range of 152 to 153 °C.

Turning to `CCOC(=O)c1c([N+](=O)[O-])c(C)nn1C`, the melting point fell in the range of 47 to 48 °C.

Molecule `CCCCC1(SCC)CCC2C3CCC4=CC(=O)C=CC4(C)C3(F)C(O)CC21C` (configuration not stated) had a melting point of 185 to 187 °C.

Molecule `O=C(Nc1ccccc1C(c1ccc(O)cc1)c1ccc(O)cc1)C1CCCCC1` yielded a melting point of 220 to 223 °C.

`C=CCc1cc(-c2ccc(F)cc2)cc(C(=O)OC)c1O` showed a melting point of 76 to 77 °C.

The molecule `CCc1cc(N(C=O)c2ccccc2)cc(CC)c1N=C=S` returned a melting point of 77 to 78 °C.

Consider `CCn1cnc2c(Nc3cccc(C#N)c3)nc(Cl)nc21`, for which the melting point turned out to be 189 °C.

Regarding `CCc1ccc2c(C=O)c3ccccc3c(C=O)c2c1`, the melting point was in the range of 99 to 100 °C.

The molecule `CCCc1c(OCCCOc2ccc(-c3cocn3)c(OC)c2CCC)ccc2c1OC(C(=O)O)CC2` (configuration not stated) gave a melting point of 136 to 139 °C.

For the molecule `CCCCCCCC[C@]1(C)OO[C@@H]2C[C@H]1CC(=O)[C@@H]2C`, the melting point came to 27 °C.

`CCOC(=O)c1c[nH]c2nc(N3CCC(N)C3)c(F)cc2c1=O` (configuration not stated) yielded a melting point of 139 to 141 °C.

The molecule `Nc1ccc2ccc(Oc3ccccc3F)nc2n1` yielded a melting point of 206 °C.

For `O=C(Nc1nc(-c2ccco2)c(C(=O)C2CCOCC2)s1)c1ccc(Cl)nc1`, the melting point lay in the range of 233 to 235 °C.

`CN1CCC(c2cccc3c2C[C@H](NC(=O)c2ccc(C(F)(F)F)cc2)CC3)CC1` registered a melting point of 163 to 166 °C.

`COc1c(-c2ccc3cc(NS(C)(=O)=O)ccc3c2)cc(-c2ccc[nH]c2=O)cc1C(C)(C)C` came in with a melting point above 300 °C.

`CCCN1CCCN(c2ccccc2)c2cc(Cl)ccc21` gave a melting point of 192 to 194 °C.

`Cc1ccccc1Cc1ccc(-c2cnn3c(O)ncnc23)cc1` returned a melting point of 274 to 279 °C.

As for `CCC(=O)NCCCSc1ccc(Cl)cc1`, the melting point is 69 to 70 °C.

The molecule `CCC(=O)n1nc(-c2cc(C(C)(C)C)c(O)c(C(C)(C)C)c2)c2cccnc21` yielded a melting point of 184 to 185 °C.

As to `C#CCC(Cc1cccnc1)(C(=O)O)S(=O)(=O)c1ccc(OC)cc1` (configuration not stated), the melting point lay within 119 to 121 °C.

In turn, `CCCCCCSc1nn2c(=O)cc(O)nc2s1` displayed a melting point of 187 to 192 °C.

Take `O=C(O)c1cn(-c2ccc(F)cc2)c2cc(-c3ccncc3)ccc2c1=O`: the melting point lay within 280 to 281 °C.

Consider `O=C(N[C@H](Cc1cccc(OCC(F)(F)F)c1)[C@@H](O)c1ccc(F)cc1)c1ccc(F)c2ccccc12` (racemic), for which the melting point lay in the range of 192 to 193 °C.

For `Cc1nc(N2C[C@@H](C)N(Cc3cc(F)cc(F)c3)C2=O)sc1C(=O)NCc1ccccn1`, the melting point fell in the range of 147 to 148 °C.

Molecule `N#Cc1cc(N=Nc2cc(Cl)ccc2Cl)ccc1N` had a melting point of 250 °C.

In the case of `CNCCc1cc2c(cc1CC(=O)c1ccc(OC)c(OC)c1C(=O)O)OCO2`, the melting point lay in the range of 176 to 179 °C.

The molecule `Cc1[nH]n(-c2c(Cl)cc(C(F)(F)F)cc2Cl)c(=O)c1C=O` registered a melting point of 195 to 197 °C.

`CC1CC(C)(C)C(=O)C(C(=O)c2ccc(OC(F)F)cc2[N+](=O)[O-])C1=O` (configuration not stated): the melting point fell in the range of 108 to 110 °C.

With `CC(=O)Nc1ccc2[nH]cc(CC#N)c2c1`, the melting point fell in the range of 172 to 175 °C.

`COC(=O)c1cc(OC)c(N(C)C(=O)OCc2ccccc2)c(OC)c1` yielded a melting point of 130 to 131 °C.

Regarding `Cn1cnnc1C(O)(c1ccc(I)cc1)c1ccc2c(c1)c(-c1cccc(Cl)c1)nc1nnnn12` (configuration not stated), the melting point was 228 °C.

Take `CCCc1c(CO)ncn1S(=O)(=O)N(C)C`: the melting point was 86 to 88 °C.

`COC(=S)c1c[nH]c(-c2ccccc2)c1` had a melting point of 107 to 109 °C.

Consider `C=CC(=O)Nc1cccc(-c2ccnc3c(C(=O)c4cccs4)cnn23)c1`, for which the melting point lay within 192 to 194 °C.

With `CCOC(=O)NC[C@H]1CN(c2ccc3c(c2)CCCc2cnoc2-3)C(=O)O1`, the melting point fell in the range of 181 to 183 °C.

`CC(=O)NCCCCc1ccc(C(=O)CC(C)C#N)cc1` (configuration not stated) yielded a melting point of 89 to 90 °C.

For `Brc1ccn2nc(Br)nc2c1`, the melting point is 183 to 184 °C.

`COCCOC1C(O)C(CO)OC1n1cnc2c(N)nc(N)nc21` (configuration not stated) gave a melting point of 152 to 154 °C.
